# Measured values reported in US10927111B2, “Inhibitors of RAF kinases” (Kinnate Biopharma Inc., priority 2019, dated 2021).
# Target: human RAF1 (Homo sapiens (Human), UniProt P04049)
# Assay: Protein kinase assay (radiometric 33P-ATP, MEK1 (K97R) substrate)
# Format: biochemical
# Conditions: human MEK1 (K97R) substrate 3 micromolar, ATP 10 micromolar, 10-dose IC50 mode; read-out: RAF-1 IC50
# Method: Protein kinase assay: Assay platform was used to measure kinase/inhibitor interactions as described previously (Anastassiadis et al., 2011). In brief, for each reaction, kinase and substrate were mixed in a buffer containing 20 mM HEPES (pH 7.5), 10 mM MgCl2, 1 mM EGTA, 0.02% Brij35, 0.02 mg/mL BSA, 0.1 mM Na3VO4, 2 mM DTT, and 1% DMSO. All compounds were solubilized in DMSO. Compounds were then added to each reaction mixture via acoustic dispense using an ECHO 550 nanoliter dispenser. For human RAF1 testing, human MEK1 (K97R) was used as a substrate at a concentration of 3 micromolar, with a final ATP concentration of 10 micromolar. For human BRAF testing, human MEK1 (K97R) was used as a substrate at 1 micromolar concentration, with a final ATP concentration of 25 micromolar. […] After a 20-min incubation, ATP (Sigma-Aldrich, St. Louis, Mo. 63178) and [g33P] ATP (specific activity 10 microCi/microliter) purchased at PerkinElmer (Boston, Mass., 02118 Cat #BLU 003H250UC) were added at a final total concentration of 10 mM. Reactions were carried out at room temperature for 2 hr and spotted onto P81 ionexchange cellulose chromatography paper (Reaction Biology). Filter paper was washed in 0.75% phosphoric acid to remove unincorporated ATP. The percent remaining kinase activity relative to a vehicle-containing (DMSO) kinase reaction was calculated for each kinase/inhibitor pair. IC50 values were calculated using Prism 5 (GraphPad).
# Chain of human RAF1 (P04049 whole entry): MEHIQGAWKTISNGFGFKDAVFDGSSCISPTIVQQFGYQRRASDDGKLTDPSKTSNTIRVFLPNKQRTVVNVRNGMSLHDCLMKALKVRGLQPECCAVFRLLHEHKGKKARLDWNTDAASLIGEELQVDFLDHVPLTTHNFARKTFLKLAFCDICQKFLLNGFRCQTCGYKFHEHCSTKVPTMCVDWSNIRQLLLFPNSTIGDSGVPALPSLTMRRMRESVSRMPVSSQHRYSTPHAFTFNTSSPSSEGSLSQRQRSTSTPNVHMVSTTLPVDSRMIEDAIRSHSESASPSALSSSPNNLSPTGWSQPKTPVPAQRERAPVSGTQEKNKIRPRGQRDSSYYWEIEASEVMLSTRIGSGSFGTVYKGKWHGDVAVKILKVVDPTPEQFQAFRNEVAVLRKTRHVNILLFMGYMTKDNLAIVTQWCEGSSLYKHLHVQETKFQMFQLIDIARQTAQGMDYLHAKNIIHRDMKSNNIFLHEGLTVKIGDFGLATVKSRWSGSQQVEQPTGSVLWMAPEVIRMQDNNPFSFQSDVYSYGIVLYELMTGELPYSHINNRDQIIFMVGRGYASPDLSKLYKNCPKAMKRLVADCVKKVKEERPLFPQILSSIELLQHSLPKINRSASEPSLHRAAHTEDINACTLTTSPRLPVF
row,Compound,IC50 [nM]
1,"Cc1ccc(NC(=O)c2ccnc(C(F)(F)F)c2)cc1-c1cc2cnc(NCCO)nc2nc1C [Example 40, N-(3-(2-((2-hydroxyethyl)amino)-7-methylpyrido[2,3-d]pyrimidin-6-yl)-4-methylphenyl)-2-(trifluoromethyl)isonicotinamide]",≤ 10
2,"CNc1ncc2cc(-c3cc(NC(=O)c4ccnc(C(F)(F)F)c4C)ccc3C)c(C)nc2n1 [Example 41, 3-methyl-N-(4-methyl-3-(7-methyl-2-(methylamino)pyrido[2,3-d]pyrimidin-6-yl)phenyl)-2-(trifluoromethyl)isonicotinamide]",≤ 10
3,"Cc1ccc(NC(=O)c2ccnc(C(F)(F)F)c2)cc1-c1cc2cnc(NC3CCN(C)CC3)nc2nc1C [Example 42, N-(4-methyl-3-(7-methyl-2-((1-methylpiperidin-4-yl)amino)pyrido[2,3-d]pyrimidin-6-yl)phenyl)-2-(trifluoromethyl)isonicotinamide]",≤ 10
4,"CNc1ncc2cc(-c3cc(NC(=O)c4cccc(C(F)(F)F)c4)cnc3C)c(C)nc2n1 [Example 44, N-(6-methyl-5-(7-methyl-2-(methylamino)pyrido[2,3-d]pyrimidin-6-yl)pyridin-3-yl)-3-(trifluoromethyl)benzamide]",≤ 10
5,"CNc1ncc2cc(-c3cc(NC(=O)c4cccc(C(F)(F)F)c4)cnc3C)cnc2n1 [Example 45, N-(6-methyl-5-(2-(methylamino)pyrido[2,3-d]pyrimidin-6-yl)pyridin-3-yl)-3-(trifluoromethyl)benzamide]",≤ 10
6,"CNc1ncc2cc(-c3cc(NC(=O)c4ccnc(C(F)(F)F)c4)cnc3C)cnc2n1 [Example 46, N-(6-methyl-5-(2-(methylamino)pyrido[2,3-d]pyrimidin-6-yl)pyridin-3-yl)-2-(trifluoromethyl)isonicotinamide]",≤ 10
7,"CNc1ncc2cc(-c3cc(NC(=O)c4cccc(C(F)(F)F)c4C)cnc3C)cnc2n1 [Example 47, 2-methyl-N-(6-methyl-5-(2-(methylamino)pyrido[2,3-d]pyrimidin-6-yl)pyridin-3-yl)-3-(trifluoromethyl)benzamide]",≤ 10
8,"Cc1ccc(NC(=O)c2ccnc(C(F)(F)F)c2)cc1-c1cc2cnc(N)nc2nc1C [Example 48, N-(3-(2-amino-7-methylpyrido[2,3-d]pyrimidin-6-yl)-4-methylphenyl)-2-(trifluoromethyl)isonicotinamide]",≤ 10
9,"Cc1ccc(NC(=O)c2ccnc(C(F)(F)F)c2)cc1-c1cc2cnc(NC(=O)C3CC3)nc2nc1C [Example 49, N-(3-(2-(cyclopropanecarboxamido)-7-methylpyrido[2,3-d]pyrimidin-6-yl)-4-methylphenyl)-2-(trifluoromethyl)isonicotinamide]",≤ 10
10,"CNc1ncc2cc(-c3cc(NC(=O)c4cnnc(C(F)(F)F)c4)ccc3C)c(C)nc2n1 [Example 50, N-(4-methyl-3-(7-methyl-2-(methylamino)pyrido[2,3-d]pyrimidin-6-yl)phenyl)-6-(trifluoromethyl)pyridazine-4-carboxamide]",≤ 10
11,"CNc1ncc2cc(-c3cc(NC(=O)N4CC[C@@H](OCC(F)(F)F)C4)c(F)cc3C)c(C)nc2n1 [Example 51, (3R)-N-[2-fluoro-4-methyl-5-[7-methyl-2-(methylamino)pyrido[2,3-d]pyrimidin-6-yl]phenyl]-3-(2,2,2-trifluoroethoxy)pyrrolidine-1-carboxamide]",≤ 10
12,"CNc1ncc2cc(-c3cc(NC(=O)c4ccnc(C(C)(F)F)c4)ccc3C)c(C)nc2n1 [Example 52, 2-(1,1-difluoroethyl)-N-[4-methyl-3-[7-methyl-2-(methylamino)pyrido[2,3-d]pyrimidin-6-yl]phenyl]pyridine-4-carboxamide]",≤ 10
13,"CNc1ncc2cc(-c3cc(NC(=O)c4ccnc(C(F)(F)F)c4)ccc3C)cnc2n1 [Example 53, N-[4-methyl-3-[2-(methylamino)pyrido[2,3-d]pyrimidin-6-yl]phenyl]-2-(trifluoromethyl)pyridine-4-carboxamide]",≤ 10
14,"CNc1ncc2cc(-c3cc(NC(=O)N4CC[C@H](OC(F)(F)F)C4)ccc3C)cnc2n1 [Example 56, 3S-N-[4-methyl-3-[2-(methylamino)pyrido[2,3-d]pyrimidin-6-yl]phenyl]-3-(trifluoromethoxy)pyrrolidine-1-carboxamide]",≤ 10
15,CNc1ncc2cc(-c3cc(NC(=O)N4CCO[C@H](C(F)(F)F)C4)ccc3C)cnc2n1 [Example 57],≤ 10
16,CNc1ncc2cc(-c3cc(NC(=O)N4CC[C@H](OC(F)(F)F)C4)c(F)cc3C)cnc2n1 [Example 59],≤ 10
17,"CNc1ncc2cc(-c3cc(NC(=O)N4CC[C@@H](OC(F)(F)F)C4)c(F)cc3C)cnc2n1 [Example 60, (3R)-N-[2-fluoro-4-methyl-5-[2-(methylamino)pyrido[2,3-d]pyrimidin-6-yl]phenyl]-3-(trifluoromethoxy)pyrrolidine-1-carboxamide]",≤ 10
18,"CNc1ncc2cc(-c3cc(NC(=O)N4CCO[C@H](C(F)(F)F)C4)c(F)cc3C)cnc2n1 [Example 61, (2S)-N-[2-fluoro-4-methyl-5-[2-(methylamino)pyrido[2,3-d]pyrimidin-6-yl]phenyl]-2-(trifluoromethyl)morpholine-4-carboxamide]",≤ 10
19,"CNc1ncc2cc(-c3cc(NC(=O)N4CCO[C@@H](C(F)(F)F)C4)c(F)cc3C)cnc2n1 [Example 62, (2R)-N-[2-fluoro-4-methyl-5-[2-(methylamino)pyrido[2,3-d]pyrimidin-6-yl]phenyl]-2-(trifluoromethyl)morpholine-4-carboxamide]",≤ 10
20,"CNc1ncc2cc(-c3cc(NC(=O)N4CC[C@H](OC(F)(F)F)C4)cnc3C)cnc2n1 [Example 63, (3S)-N/-[6-methyl-5-[2-(methylamino)pyrido[2,3-d]pyrimidin-6-yl]pyridin-3-yl]-3-(trifluoromethoxy)pyrrolidine-1-carboxamide]",≤ 10
21,"CNc1ncc2cc(-c3cc(NC(=O)c4ccnc(C(F)(F)F)c4)ccc3C)c(Cl)nc2n1 [Example 64, N-[3-[7-chloro-2-(methylamino)pyrido[2,3-d]pyrimidin-6-yl]-4-methylphenyl]-2-(trifluoromethyl) pyridine-4-carboxamide]",≤ 10
22,"C=Cc1nc2nc(NC)ncc2cc1-c1cc(NC(=O)c2ccnc(C(F)(F)F)c2)ccc1C [Example 65, N-[3-[7-ethenyl-2-(methylamino)pyrido[2,3-d]pyrimidin-6-yl]-4-methylphenyl]-2-(trifluoromethyl)pyridine-4-carboxamide]",≤ 10
23,"CCOc1nc2nc(NC)ncc2cc1-c1cc(NC(=O)c2ccnc(C(F)(F)F)c2)ccc1C [Example 69, N-[3-[7-ethoxy-2-(methylamino)pyrido[2,3-d]pyrimidin-6-yl]-4-methylphenyl]-2-(trifluoromethyl)pyridine-4-carboxamide]",≤ 10
24,"CNc1ncc2cc(-c3cc(NC(=O)c4ccnc(C(F)(F)F)c4)ccc3C)c(OCCO)nc2n1 [Example 70, N-[3-[7-(2-hydroxyethoxy)-2-(methylamino)pyrido[2,3-d]pyrimidin-6-yl]-4-methylphenyl]-2-(trifluoromethyl)pyridine-4-carboxamide]",≤ 10
25,"CNc1ncc2cc(-c3cc(NC(=O)c4ccnc(C(F)(F)F)c4)ccc3C)c(C#N)nc2n1 [Example 72, N-[3-[7-cyano-2-(methylamino)pyrido[2,3-d]pyrimidin-6-yl]-4-methylphenyl]-2-(trifluoromethyl)pyridine-4-carboxamide]",≤ 10
26,"CNc1ncc2cc(-c3cc(NC(=O)c4ccnc(C(F)(F)F)c4)ccc3C)c(C(F)(F)F)nc2n1 [Example 73, N-[4-methyl-3-[2-(methylamino)-7-(trifluoromethyl)pyrido[2,3-d]pyrimidin-6-yl]phenyl]-2-(trifluoromethyl)pyridine-4-carboxamide]",≤ 10

# Same assay, conditions: read-out: RAF-1 IC50
row,Compound,IC50 [nM]
1,"[2H]C([2H])([2H])Nc1ncc2cc(-c3cc(NC(=O)c4ccnc(C(F)(F)F)c4)ccc3C)c(C)nc2n1 [Example 43, N-(4-methyl-3-(7-methyl-2-((trideuteromethyl)amino)pyrido[2,3-d]pyrimidin-6-yl)phenyl)-2-(trifluoromethyl)isonicotinamide]",≤ 10
2,"CNc1ncc2cc(-c3cc(NC(=O)c4ccnc(C(F)(F)F)c4)ccc3C)c(OC)nc2n1 [Example 68, N-[3-[7-methoxy-2-(methylamino)pyrido[2,3-d]pyrimidin-6-yl]-4-methylphenyl]-2-(trifluoromethyl)pyridine-4-carboxamide]",≤ 10
3,"[2H]C([2H])([2H])Oc1nc2nc(NC)ncc2cc1-c1cc(NC(=O)c2ccnc(C(F)(F)F)c2)ccc1C [Example 71, N-(3-(7-(methoxy-d3)-2-(methylamino)pyrido[2,3-d]pyrimidin-6-yl)-4-methylphenyl)-2-(trifluoromethyl)isonicotinamide]",≤ 10
4,"[2H]C([2H])([2H])c1nc2nc(NC)ncc2cc1-c1cc(NC(=O)c2ccnc(C(F)(F)F)c2)ccc1C [Example 74, N-(4-methyl-3-(7-(methyl-d3)-2-(methylamino)pyrido[2,3-d]pyrimidin-6-yl)phenyl)-2-(trifluoromethyl)isonicotinamide]",≤ 10
